Measurements published in PMC2232895 (The Journal of General Physiology, 2000).

Biological target: T1, bovine rod cGMP-gated channel alpha subunit (retinal CNG channel) (Bos taurus, UniProt Q00194)
T1 sequence (Q00194 1-690): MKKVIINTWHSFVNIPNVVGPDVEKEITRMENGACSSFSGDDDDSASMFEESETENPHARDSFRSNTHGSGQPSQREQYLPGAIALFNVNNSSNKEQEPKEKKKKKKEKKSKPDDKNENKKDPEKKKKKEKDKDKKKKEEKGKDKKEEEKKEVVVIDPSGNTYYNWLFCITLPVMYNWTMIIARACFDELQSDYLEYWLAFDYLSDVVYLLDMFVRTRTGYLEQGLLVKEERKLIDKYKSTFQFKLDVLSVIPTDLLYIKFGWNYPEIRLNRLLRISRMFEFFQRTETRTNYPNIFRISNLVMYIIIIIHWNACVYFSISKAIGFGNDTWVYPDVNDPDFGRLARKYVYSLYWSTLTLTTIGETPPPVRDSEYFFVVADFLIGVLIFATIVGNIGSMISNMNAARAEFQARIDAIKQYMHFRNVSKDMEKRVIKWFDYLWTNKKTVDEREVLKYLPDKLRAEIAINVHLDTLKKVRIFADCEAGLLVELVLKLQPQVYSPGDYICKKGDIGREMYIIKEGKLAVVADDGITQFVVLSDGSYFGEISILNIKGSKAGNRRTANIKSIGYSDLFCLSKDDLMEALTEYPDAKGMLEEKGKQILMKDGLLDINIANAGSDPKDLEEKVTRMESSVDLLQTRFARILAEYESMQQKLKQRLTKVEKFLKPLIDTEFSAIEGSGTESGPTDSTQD
Assay type: cell-based

NCCCNCCCCNCCCN [spermine]
Kd: 510 ± 40 nM
